Columns and labels:
recombinant NL4-3 virus = assay: HIV cell culture assay (antiviral activity, luciferase readout in infected MT-2 cells); format: cell-based; settings: Human immunodeficiency virus 1, NL43, MT2
Method: HIV cell culture assay—MT-2 cells, 293T cells and the proviral DNA clone of NL4-3 virus were obtained from the NIH AIDS Research and Reference Reagent Program. MT-2 cells were propagated in RPMI 1640 media supplemented with 10% heat inactivated fetal bovine serum (FBS), 100 μg/ml penicillin G and up to 100 units/mL streptomycin. The 293T cells were propagated in DMEM media supplemented with 10% heat inactivated FBS, 100 μg/mL penicillin G and 100 μg/mL streptomycin. A recombinant NL4-3 proviral clone, in which a section of the nef gene was replaced with the Renilla luciferase gene, was used to make the reference virus used in these studies. The recombinant virus was prepared through transfection of the recombinant NL4-3 proviral clone into 293T cells using Transit-293 Transfection Reagent from Mirus Bio LLC (Madison, WI). Supernatant was harvested after 2-3 days and the amount of virus present was titered in MT-2 cells using luciferase enzyme activity as a marker by measuring luciferase enzyme activity. Luciferase was quantitated using the EnduRen Live Cell Substrate from Promega (Madison, WI). Antiviral activities of compounds toward the recombinant virus were quantified by measuring luciferase activity in MT-2 cells infected for 4-5 days with the recombinant virus in the presence of serial dilutions of the compound.
The 50% effective concentration (EC50) was calculated by using the exponential form of the median effect equation where (Fa)=1/[1+(ED50/drug conc.)m] (Johnson VA, Byington RT. Infectivity Assay. In Techniques in HIV Research. ed. Aldovini A, Walker BD. 71-76. New York: Stockton Press.1990). Curve fitting and analysis were performed with ActivityBase XE Runner software version 9.1.0.4 using model 203 (ID Business Solutions, LTD, Guildford, UK).

[1] = Compound cytotoxicity, XTT-based colorimetric assay; format: cell-based; settings: human; uninfected MT2 cells, day 4, XTT assay
Method: Compound cytotoxicity and the corresponding CC50 values were determined using the same protocol as described in the antiviral assay except that uninfected cells were used. Cytotoxicity was assessed on day 4 in uninfected MT2 cells by using an XTT (2,3-bis[2-Methoxy-4-nitro-5-sulfophenyl]-2H-tetrazolium-5-carboxyanilide inner salt)-based colorimetric assay (Sigma-Aldrich, St Louis, Mo).

Cn1nc(NS(C)(=O)=O)c2c(Cl)ccc(-n3c([C@H](Cc4cc(F)cc(F)c4)NC(=O)Cn4nc(C(F)F)c5c4C(F)(F)[C@@H]4C[C@H]54)nc4nc(OCc5cccnc5)ccc4c3=O)c21 (atropisomer, axis not shown; (P)) [Example 3, N-[(1S)-1-[(3P)-3-(4-chloro-3-methanesulfonamido-1-methyl-1H-indazol-7-yl)-4-oxo-7-[(pyridin-3-yl)methoxy]-3H,4H-pyrido[2,3-d]pyrimidin-2-yl]-2-(3,5-difluorophenyl)ethyl]-2-[(2S,4R)-9-(difluoromethyl)-5,5-difluoro-7,8-diazatricyclo[4.3.0.0^2,^4]nona-1(6),8-dien-7-yl]acetamide]
EC50 (recombinant NL4-3 virus): 0.048 nM
CC50 at 4 day [1]: > 100 nM

Cn1cc(CCOc2ccc3c(=O)n(-c4ccc(Cl)c5c(NS(C)(=O)=O)nn(C)c45)c([C@H](Cc4cc(F)cc(F)c4)NC(=O)Cn4nc(C(F)F)c5c4C(F)(F)[C@@H]4C[C@H]54)nc3n2)cn1 (atropisomer, axis not shown; (P)) [Example 12, N-((S)-1-((3P,3P)-3-(4-chloro-1-methyl-3-(methylsulfonamido)-1H-indazol-7-yl)-7-(2-(1-methyl-1H-pyrazol-4-yl)ethoxy)-4-oxo-3,4-dihydropyrido[2,3-d]pyrimidin-2-yl)-2-(3,5-difluorophenyl)ethyl)-2-((3bS,4aR)-3-(difluoromethyl)-5,5-difluoro-3b,4,4a,5-tetrahydro-1H-cyclopropa[3,4]cyclopenta[1,2-c]pyrazol-1-yl)acetamide]
EC50 (recombinant NL4-3 virus): 0.14 nM
CC50 at 4 day [1]: > 100 nM

Cn1nc(NS(C)(=O)=O)c2c(Cl)ccc(-n3c([C@H](Cc4cc(F)cc(F)c4)NC(=O)Cn4nc(C(F)F)c5c4C(F)(F)[C@@H]4C[C@H]54)nc4nc(OCCOC5CC5(F)F)ccc4c3=O)c21 (stereo partly drawn) [Example 34, N-((1S)-1-((3P,3P)-3-(4-chloro-1-methyl-3-(methylsulfonamido)-1H-indazol-7-yl)-7-(2-(2,2-difluorocyclopropoxy)ethoxy)-4-oxo-3,4-dihydropyrido[2,3-d]pyrimidin-2-yl)-2-(3,5-difluorophenyl)ethyl)-2-((3bS,4aR)-3-(difluoromethyl)-5,5-difluoro-3b,4,4a,5-tetrahydro-1H-cyclopropa[3,4]cyclopenta[1,2-c]pyrazol-1-yl)acetamide]
EC50 (recombinant NL4-3 virus): 0.035 nM
CC50 at 4 day [1]: > 100 nM

CN(CCOc1ccc2c(=O)n(-c3ccc(Cl)c4c(NS(C)(=O)=O)nn(C)c34)c([C@H](Cc3cc(F)cc(F)c3)NC(=O)Cn3nc(C(F)F)c4c3C(F)(F)[C@@H]3C[C@H]43)nc2n1)S(C)(=O)=O (atropisomer, axis not shown; (P)) [Example 10, N-((S)-1-((3P)-3-(4-chloro-1-methyl-3-(methylsulfonamido)-1H-indazol-7-yl)-7-(2-(N-methylmethylsulfonamido)ethoxy)-4-oxo-3,4-dihydropyrido[2,3-d]pyrimidin-2-yl)-2-(3,5-difluorophenyl)ethyl)-2-((3bS,4aR)-3-(difluoromethyl)-5,5-difluoro-3b,4,4a,5-tetrahydro-1H-cyclopropa[3,4]cyclopenta[1,2-c]pyrazol-1-yl)acetamide]
EC50 (recombinant NL4-3 virus): 0.041 nM
CC50 at 4 day [1]: > 500 nM

Cn1nc(NS(C)(=O)=O)c2c(Cl)ccc(-n3c([C@H](Cc4cc(F)cc(F)c4)NC(=O)Cn4nc(C(F)F)c5c4C(F)(F)[C@@H]4C[C@H]54)nc4nc(OCC5(C(F)(F)F)CC5)ccc4c3=O)c21 (atropisomer, axis not shown; (P)) [Example 21, N-((S)-1-((3P)-3-(4-chloro-1-methyl-3-(methylsulfonamido)-1H-indazol-7-yl)-4-oxo-7-((1-(trifluoromethyl)cyclopropyl)methoxy)-3,4-dihydropyrido[2,3-d]pyrimidin-2-yl)-2-(3,5-difluorophenyl)ethyl)-2-((3bS,4aR)-3-(difluoromethyl)-5,5-difluoro-3b,4,4a,5-tetrahydro-1H-cyclopropa[3,4]cyclopenta[1,2-c]pyrazol-1-yl)acetamide]
EC50 (recombinant NL4-3 virus): 0.046 nM
CC50 at 4 day [1]: > 500 nM

Cn1nc(NS(C)(=O)=O)c2c(Cl)ccc(-n3c([C@H](Cc4cc(F)cc(F)c4)NC(=O)Cn4nc(C(F)F)c5c4C(F)(F)[C@@H]4C[C@H]54)nc4nc(OC5CC(F)(F)C5)ccc4c3=O)c21 (atropisomer, axis not shown; (P)) [Example 30, N-[(1S)-1-[(3P)-3-(4-chloro-3-methanesulfonamido-1-methyl-1H-indazol-7-yl)-7-(3,3-difluorocyclobutoxy)-4-oxo-3H,4H-pyrido[2,3-d]pyrimidin-2-yl]-2-(3,5-difluorophenyl)ethyl]-2-[(2S,4R)-9-(difluoromethyl)-5,5-difluoro-7,8-diazatricyclo[4.3.0.0^2,^4]nona-1(6),8-dien-7-yl]acetamide]
EC50 (recombinant NL4-3 virus): 0.031 nM
CC50 at 4 day [1]: > 500 nM

COC(C)(C)CCOc1ccc2c(=O)n(-c3ccc(Cl)c4c(NS(C)(=O)=O)nn(C)c34)c([C@H](Cc3cc(F)cc(F)c3)NC(=O)Cn3nc(C(F)F)c4c3C(F)(F)[C@@H]3C[C@H]43)nc2n1 (atropisomer, axis not shown; (P)) [Example 15, N-((S)-1-((3P)-3-(4-chloro-1-methyl-3-(methylsulfonamido)-1H-indazol-7-yl)-7-(3-methoxy-3-methylbutoxy)-4-oxo-3,4-dihydropyrido[2,3-d]pyrimidin-2-yl)-2-(3,5-difluorophenyl)ethyl)-2-((3bS,4aR)-3-(difluoromethyl)-5,5-difluoro-3b,4,4a,5-tetrahydro-1H-cyclopropa[3,4]cyclopenta[1,2-c]pyrazol-1-yl)acetamide]
EC50 (recombinant NL4-3 virus): 0.019 nM
CC50 at 4 day [1]: > 500 nM

Cn1nc(NS(C)(=O)=O)c2c(Cl)ccc(-n3c([C@H](Cc4cc(F)cc(F)c4)NC(=O)Cn4nc(C(F)F)c5c4C(F)(F)[C@@H]4C[C@H]54)nc4nc(OC5CCC(F)(F)CC5)ccc4c3=O)c21 (atropisomer, axis not shown; (P)) [Example 35, N-((S)-1-((3P)-3-(4-chloro-1-methyl-3-(methylsulfonamido)-1H-indazol-7-yl)-7-((4,4-difluorocyclohexyl)oxy)-4-oxo-3,4-dihydropyrido[2,3-d]pyrimidin-2-yl)-2-(3,5-difluorophenyl)ethyl)-2-((3bS,4aR)-3-(difluoromethyl)-5,5-difluoro-3b,4,4a,5-tetrahydro-1H-cyclopropa[3,4]cyclopenta[1,2-c]pyrazol-1-yl)acetamide]
EC50 (recombinant NL4-3 virus): 0.054 nM
CC50 at 4 day [1]: > 100 nM

Cn1nc(NS(C)(=O)=O)c2c(Cl)ccc(-n3c([C@H](Cc4cc(F)cc(F)c4)NC(=O)Cn4nc(C(F)F)c5c4C(F)(F)[C@@H]4C[C@H]54)nc4nc(OC5CC=CC5)ccc4c3=O)c21 (atropisomer, axis not shown; (P)) [Example 1, N-((S)-1-((3P)-3-(4-chloro-1-methyl-3-(methylsulfonamido)-1H-indazol-7-yl)-7-(cyclopent-3-en-1-yloxy)-4-oxo-3,4-dihydropyrido[2,3-d]pyrimidin-2-yl)-2-(3,5-difluorophenyl)ethyl)-2-((3bS,4aR)-3-(difluoromethyl)-5,5-difluoro-3b,4,4a,5-tetrahydro-1H-cyclopropa[3,4]cyclopenta[1,2-c]pyrazol-1-yl)acetamide]
EC50 (recombinant NL4-3 virus): 0.024 nM
CC50 at 4 day [1]: > 100 nM

Cn1nc(NS(C)(=O)=O)c2c(Cl)ccc(-n3c([C@H](Cc4cc(F)cc(F)c4)NC(=O)Cn4nc(C(F)F)c5c4C(F)(F)[C@@H]4C[C@H]54)nc4nc(OCc5cccc(C(F)(F)F)n5)ccc4c3=O)c21 (atropisomer, axis not shown; (P)) [Example 22, N-((S)-1-((3P)-3-(4-chloro-1-methyl-3-(methylsulfonamido)-1H-indazol-7-yl)-4-oxo-7-((6-(trifluoromethyl)pyridin-2-yl)methoxy)-3,4-dihydropyrido[2,3-d]pyrimidin-2-yl)-2-(3,5-difluorophenyl)ethyl)-2-((3bS,4aR)-3-(difluoromethyl)-5,5-difluoro-3b,4,4a,5-tetrahydro-1H-cyclopropa[3,4]cyclopenta[1,2-c]pyrazol-1-yl)acetamide]
EC50 (recombinant NL4-3 virus): 0.055 nM
CC50 at 4 day [1]: > 100 nM

Cn1nc(NS(C)(=O)=O)c2c(Cl)ccc(-n3c([C@H](Cc4cc(F)cc(F)c4)NC(=O)Cn4nc(C(F)F)c5c4C(F)(F)[C@@H]4C[C@H]54)nc4nc(Oc5ccccc5F)ccc4c3=O)c21 (atropisomer, axis not shown; (P)) [Example 37, N-((S)-1-((3P)-3-(4-chloro-1-methyl-3-(methylsulfonamido)-1H-indazol-7-yl)-7-(2-fluorophenoxy)-4-oxo-3,4-dihydropyrido[2,3-d]pyrimidin-2-yl)-2-(3,5-difluorophenyl)ethyl)-2-((3bS,4aR)-3-(difluoromethyl)-5,5-difluoro-3b,4,4a,5-tetrahydro-1H-cyclopropa[3,4]cyclopenta[1,2-c]pyrazol-1-yl)acetamide]
EC50 (recombinant NL4-3 virus): 0.081 nM
CC50 at 4 day [1]: > 100 nM

Reference: US20230355626A1, “INHIBITORS OF HUMAN IMMUNODEFICIENCY VIRUS REPLICATION” (VIIV HEALTHCARE UK (NO.5) LIMITED, priority 2020, published 2023)
